Test results as given in ChEMBL document CHEMBL1124940, “N-[(arylmethoxy)phenyl] carboxylic acids, hydroxamic acids, tetrazoles, and sulfonyl carboxamides. Potent orally active leukotriene D4 antagonists of novel structure” (J Med Chem, 1990).

Key:
Cavia porcellus [1] = test: Inhibition of LTD4-induced broncho constriction in Guinea pig after intragastrical administration of a dose of 25 mg/kg; type: functional; conditions: po, route intragastric
Cavia porcellus [2] = test: Tested for the inhibition of LTD4-induced broncho constriction in Guinea pig, injected intraduodenally at a dose of 25 mg/kg; type: functional; conditions: route intraduodenal
Cavia porcellus [3] = test: Inhibition of LTD4-induced broncho constriction in Guinea pig after intragastrical administration of a dose of 3 mg/kg; type: functional; conditions: po, route intragastric
Cavia porcellus [4] = test: Tested for the inhibition of ovalbumin- induced bronchoconstriction in Guinea pig, injected intragastrically. Compound dose is 10 mg/kg; type: functional; conditions: po, route intragastric
Cavia porcellus [5] = test: Tested for the inhibition of ovalbumin- induced bronchoconstriction in Guinea pig, injected intragastrically. Compound dose is 25 mg/kg; type: functional; conditions: po, route intragastric
Cavia porcellus [6] = test: Tested for the inhibition of LTD4-induced bronchoconstriction in Guinea pig, injected intraduodenally, dose of 3 mg/kg; type: functional; conditions: route intraduodenal
Cavia porcellus [7] = test: -log dissociation constant was determined In vitro in isolated guinea pig trachea after intraduodenal administration (before 10 min); type: ADME, organism-based; conditions: in vivo, other
Cavia porcellus [8] = test: In vitro inhibition of ovalbumin-induced bronchoconstriction in isolated guinea pig trachea was determined after intraduodenal aministration; type: functional
Cavia porcellus [9] = test: In vitro LTD4-induced bronchoconstriction. i n isolated guinea pig trachea by injecting intraduodenally.; type: functional; conditions: intraduodenal
Cavia porcellus [10] = test: Tested for the inhibition of ovalbumin- induced bronchoconstriction in Guinea pig, injected intraduodenally, dose of 25 mg/kg; type: functional; conditions: route intraduodenal
Cavia porcellus [11] = test: Tested for the inhibition of LTD4-induced bronchoconstriction in Guinea pig, injected intragastrically, dose of 25 mg/kg; type: functional; conditions: po, route intragastric
Cavia porcellus [12] = test: Inhibition of ovalbumin-induced broncho constriction in Guinea pig after intragastrical administration of a dose of 25 mg/kg; type: functional; conditions: po, route intragastric
Cavia porcellus [13] = test: Tested for the inhibition of LTD4-induced broncho constriction in Guinea pig, compound injected intragastrically at a dose of 25 mg/kg; type: functional; conditions: po, route intragastric
Cavia porcellus [14] = test: Inhibition of LTD4-induced broncho constriction in Guinea pig, compound injected intraduodenally at a dose of 25 mg/kg; type: functional; conditions: route intraduodenal
Cavia porcellus [15] = test: Tested for the inhibition of LTD4-induced bronchoconstriction in Guinea pig, injected intragastrically, dose of 3 mg/kg.; type: functional; conditions: po, route intragastric
Cavia porcellus [16] = test: Tested for the inhibition of LTD4-induced bronchoconstriction in Guinea pig, injected intraduodenally, dose is 3 mg/kg; type: functional; conditions: route intraduodenal
Cavia porcellus [17] = test: Tested for the inhibition of ovalbumin- induced bronchoconstriction in Guinea pig, injected intragastrically, dose of 10 mg/kg.; type: functional; conditions: po, route intragastric
Cavia porcellus [18] = test: Tested for the inhibition of LTD4-induced bronchoconstriction in Guinea pig, injected intragastrically, dose of 10 mg/kg; type: functional; conditions: po, route intragastric
Cavia porcellus [19] = test: Tested for the inhibition of ovalbumin- induced bronchoconstriction in Guinea pig, injected intraduodenally, dose of 3 mg/kg.; type: functional; conditions: route intraduodenal
Cavia porcellus [20] = test: Tested for the inhibition of ovalbumin- induced bronchoconstriction in Guinea pig, injected intragastrically, dose of 25 mg/kg; type: functional; conditions: po, route intragastric
Cavia porcellus [21] = test: Tested for the inhibition of ovalbumin- induced bronchoconstriction in Guinea pig, injected intraduodenally, dose is 25 mg/kg.; type: functional; conditions: route intraduodenal
Cavia porcellus [22] = test: In vitro inhibition of LTD4-induced bronchoconstriction in isolated guinea pig trachea by injecting intraduodenally; type: functional; conditions: intraduodenal
Cavia porcellus [23] = test: In vitro inhibition of LTD4-induced bronchoconstriction into isolated guinea pig trachea by injecting intragastrically; type: functional; conditions: po
Cavia porcellus [24] = test: Inhibition of LTD4-induced broncho constriction in Guinea pig after intraduodenal administration of a dose of 3 mg/kg; type: functional
Rattus norvegicus = test: Antiinflammatory effect was studied in a rat carrageenan paw edema (CE) assay at 50 mg/kg; type: functional
Cavia porcellus [25] = test: Tested for the inhibition of LTD4-induced bronchoconstriction in Guinea pig, compound injected intragastrically, dose of 3 mg/kg; type: functional; conditions: po, route intragastric
Cavia porcellus [26] = test: Dissociation constant was determined in vitro after intraduodenal administration in isolated guinea pig trachea; type: ADME, organism-based; conditions: in vivo, other
Cavia porcellus [27] = test: Tested for the inhibition of LTD4-induced bronchoconstriction in Guinea pig, compound injected intragastrically, dose of 25 mg/kg; type: functional; conditions: po, route intragastric
Cavia porcellus [28] = test: Tested for the inhibition of ovalbumin- induced bronchoconstriction in Guinea pig, compound injected intragastrically, dose of 25 mg/kg; type: functional; conditions: po, route intragastric
Cavia porcellus [29] = test: In vitro Inhibition of ovalbumin-induced bronchoconstriction in isolated guinea pig trachea by injecting intraduodenally; type: functional; conditions: intraduodenal
[30] = target: T1, Polyunsaturated fatty acid 5-lipoxygenase (Rattus norvegicus, UniProt P12527); test: Concentration for 50% inhibition of A-23187-stimulated radiolabeled 5-HETE and TXB2 synthesis by PMN 5-lipoxygenase; type: functional
T1 sequence (P12527 whole entry): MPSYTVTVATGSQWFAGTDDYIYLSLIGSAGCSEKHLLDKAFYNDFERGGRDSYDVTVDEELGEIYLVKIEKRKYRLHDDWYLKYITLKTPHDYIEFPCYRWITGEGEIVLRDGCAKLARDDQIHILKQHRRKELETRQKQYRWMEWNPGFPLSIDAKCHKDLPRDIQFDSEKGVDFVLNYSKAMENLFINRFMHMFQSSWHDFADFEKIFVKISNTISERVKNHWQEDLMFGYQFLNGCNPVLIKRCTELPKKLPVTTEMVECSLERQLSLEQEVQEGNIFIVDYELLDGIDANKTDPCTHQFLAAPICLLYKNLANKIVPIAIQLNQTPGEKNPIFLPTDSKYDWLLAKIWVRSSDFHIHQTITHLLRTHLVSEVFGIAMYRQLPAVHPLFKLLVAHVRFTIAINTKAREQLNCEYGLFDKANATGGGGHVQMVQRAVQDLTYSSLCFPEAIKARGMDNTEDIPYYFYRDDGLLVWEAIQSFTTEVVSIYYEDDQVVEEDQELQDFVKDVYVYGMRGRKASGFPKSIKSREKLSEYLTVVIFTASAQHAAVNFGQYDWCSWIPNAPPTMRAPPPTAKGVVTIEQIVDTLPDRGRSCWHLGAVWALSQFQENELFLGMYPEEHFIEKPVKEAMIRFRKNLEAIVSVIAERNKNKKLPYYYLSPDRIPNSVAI

Cavia porcellus [31] = test: Tested for the inhibition of ovalbumin- induced bronchoconstriction in Guinea pig, compound injected intragastrically, dose of 3 mg/kg; type: functional; conditions: po, route intragastric
Cavia porcellus [32] = test: Tested for the inhibition of ovalbumin induced bronchoconstriction in Guinea pig, compound injected intraduodenally, dose is 10 mg/kg; type: functional; conditions: route intraduodenal
Cavia porcellus [33] = species on record: Cavia porcellus; test: Dose of antagonist that produces 50% inhibition of ovalbumin-induced bronchoconstriction; type: functional
Cavia porcellus [34] = test: Tested for the inhibition of ovalbumin induced bronchoconstriction in Guinea pig, compound injected intraduodenally, dose is 25 mg/kg; type: functional; conditions: route intraduodenal

c1cc(OCc2ccc3ccccc3n2)cc(-c2nn[nH]n2)c1
inhibition in vivo at 25 mg/kg (Cavia porcellus [1]): < 89% | inhibition in vivo at 25 mg/kg (Cavia porcellus [2]): 90% | inhibition in vivo at 3 mg/kg (Cavia porcellus [3]): 13%

c1ccc2nc(COc3ccc(Cc4nnn[nH]4)cc3)ccc2c1
inhibition in vivo at 25 mg/kg (Cavia porcellus [1]): 90% | inhibition in vivo at 10 mg/kg (Cavia porcellus [4]): 6% | inhibition in vivo at 25 mg/kg (Cavia porcellus [5]): 76% | inhibition in vivo at 25 mg/kg (Cavia porcellus [2]): 88% | inhibition in vivo at 3 mg/kg (Cavia porcellus [6]): -15% | inhibition in vivo at 3 mg/kg (Cavia porcellus [3]): 4%

COC(=O)CCC(=O)N(O)c1cccc(OCc2ccc3ccccc3n2)c1
pKb (Cavia porcellus [7]): 6.5 | ED50 (Cavia porcellus [8]): 27.4 mg/kg | ED50 (Cavia porcellus [9]): 3.3 mg/kg

CS(=O)(=O)NC(=O)c1cccc(OCc2ccc3ccccc3n2)c1
inhibition in vivo at 25 mg/kg (Cavia porcellus [10]): < 13% | inhibition in vivo at 25 mg/kg (Cavia porcellus [1]): < 66% | inhibition in vivo at 25 mg/kg (Cavia porcellus [2]): 90% | inhibition in vivo at 3 mg/kg (Cavia porcellus [3]): 20%

Cc1ccc(S(=O)(=O)NC(=O)CCc2cccc(OCc3ccc4ccccc4n3)c2)cc1
inhibition in vivo at 25 mg/kg (Cavia porcellus [11]): < 66% | inhibition in vivo at 25 mg/kg (Cavia porcellus [2]): 97% | inhibition in vivo at 25 mg/kg (Cavia porcellus [12]): < 26%

O=C(O)Cc1cccc(OCc2ccc3ccccc3n2)c1
inhibition in vivo at 25 mg/kg (Cavia porcellus [13]): < 99%

c1cc(Cc2nnn[nH]2)cc(OCc2nc3ccccc3s2)c1
inhibition in vivo at 25 mg/kg (Cavia porcellus [2]): < 95%

O=C(O)Cc1ccc(OCc2ccc3ccccc3n2)cc1
inhibition in vivo at 25 mg/kg (Cavia porcellus [1]): < -4%

COC(=O)Cc1cccc(OCc2nc3ccccc3s2)c1
inhibition in vivo at 25 mg/kg (Cavia porcellus [1]): < 33% | inhibition in vivo at 25 mg/kg (Cavia porcellus [14]): < 65%

Cc1ccc(S(=O)(=O)NC(=O)Cc2cccc(OCc3nc4ccccc4s3)c2)cc1
inhibition in vivo at 3 mg/kg (Cavia porcellus [15]): 80% | inhibition in vivo at 3 mg/kg (Cavia porcellus [16]): 83% | inhibition in vivo at 10 mg/kg (Cavia porcellus [17]): 42% | inhibition in vivo at 10 mg/kg (Cavia porcellus [18]): < 55% | inhibition in vivo at 3 mg/kg (Cavia porcellus [19]): 44% | inhibition in vivo at 25 mg/kg (Cavia porcellus [2]): < 97% | inhibition in vivo at 25 mg/kg (Cavia porcellus [20]): < 70% | inhibition in vivo at 25 mg/kg (Cavia porcellus [21]): 78%

CONC(=O)Cc1cccc(OCc2nc3ccccc3s2)c1
inhibition in vivo at 25 mg/kg (Cavia porcellus [1]): < -4%

CONC(=O)Cc1cccc(OCc2ccc3ccccc3n2)c1
ED50 (Cavia porcellus [22]): 1.8 mg/kg | ED50 (Cavia porcellus [23]): 7.9 mg/kg | inhibition in vivo at 3 mg/kg (Cavia porcellus [24]): 44% | inhibition in vivo at 50 mg/kg (Rattus norvegicus): < 41% | inhibition in vivo at 3 mg/kg (Cavia porcellus [25]): 2% | pKb (Cavia porcellus [26]): 6.08 | inhibition in vivo at 25 mg/kg (Cavia porcellus [27]): 86% | inhibition in vivo at 25 mg/kg (Cavia porcellus [28]): 83% | ED50 (Cavia porcellus [29]): 7.3 mg/kg | IC50 [30]: 14.2 µM | inhibition in vivo at 3 mg/kg (Cavia porcellus [31]): 38% | inhibition in vivo at 10 mg/kg (Cavia porcellus [32]): 25% | ED50 (Cavia porcellus [33]): 3.6 mg/kg | inhibition in vivo at 25 mg/kg (Cavia porcellus [34]): 56%

O=C(Cc1cccc(OCc2ccc3ccccc3n2)c1)NO
inhibition in vivo at 25 mg/kg (Cavia porcellus [2]): < 14%
